Experimental data: patent US10611750B2, “Tetrahydroquinoline compositions as bet bromodomain inhibitors” (FORMA Therapeutics, Inc., priority 2013, dated 2020)
“And” between values parts separate entries of the source, which are not always exact repeats. Equal values may be shown once.

Tests used:
[1] = molecular target: T1, BRD4 Bromodomain 1 (BRD4 BD1) (Homo sapiens, UniProt O60885); assay: AlphaScreen binding assay, BRD4 BD1; settings: His-tagged BRD4 BD1 50 nM, biotinylated H4 (1-21) K5/8/12/16 tetra-acetylated peptide 50 nM, compounds listed under IC50 range headings
T1 construct: 44-168 and BRD4 BD2
Outline: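 Compound dilution series were mixed with His-tagged BRD4 bromodomain and biotinylated tetra-acetylated H4 (1-21) peptide at pH 7.3 (BD1 and peptide at 50 nM, BD2 and peptide at 100 nM). Donor and acceptor beads were then added, and plates were equilibrated at least 1 h before reading. IC50 values were fitted with a four-parameter logistic model.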

[2] = tested on: acute myelocytic leukemia (AML) cell line MV4-11; assay: Oncology cell growth assay (3-day proliferation, CellTiter-Glo); format: cell-based; settings: Homo sapiens, MV4-11, 72 h, MV4-11 cells, 3000 cells/well, compounds listed under IC50 range headings, read-out: MV411 IC50 (gIC50, inhibition of proliferation)
Outline: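 A 3-day proliferation test used MV4-11 cells seeded at 3000 per well with eight compound concentrations (10 μM top, 3-fold dilution) at 37° C in 5% CO2. CellTiter-Glo luminescence defined viable cell signal. A four-parameter logistic curve against DMSO and background wells gave the gIC50.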

SMILES | IC50 [1] | IC50 [2] [nM]
COC(=O)N1c2ccc(-c3cn(C)c(N4CCNCC4)n3)c(OC3CCC3)c2CC[C@@H]1C [I-315, (S)-methyl 5-cyclobutoxy-2-methyl-6-(1-methyl-2-(piperazin-1-yl)-1H-imidazol-4-yl)-3,4-dihydroquinoline-1(2H)-carboxylate] | 100 to 1000 nM | < 500
COC(=O)N1c2ccc(-c3csc(N4CCNCC4)n3)c(OC3CCC3)c2CC[C@@H]1C [I-316, (S)-methyl 5-cyclobutoxy-2-methyl-6-(2-(piperazin-1-yl)thiazol-4-yl)-3,4-dihydroquinoline-1(2H)-carboxylate] | 100 to 1000 nM | < 500
COC(=O)N1c2ccc(-c3csc(N4CC(O)C4)n3)c(OC3CCC3)c2CC[C@@H]1C [I-317, (S)-methyl 5-cyclobutoxy-6-(2-(3-hydroxyazetidin-1-yl)thiazol-4-yl)-2-methyl-3,4-dihydroquinoline-1(2H)-carboxylate] | 100 to 1000 nM | 500 to 1000
C[C@H]1CCc2c(ccc(-n3cccn3)c2OC2CCC2)N1C(=O)C1CC1 [I-324, (S)-(5-cyclobutoxy-2-methyl-6-(1H-pyrazol-1-yl)-3,4-dihydroquinolin-1(2H)-yl)(cyclopropyl)methanone] | ≥ 10000 nM | > 1000
C[C@H]1CCc2c(ccc(-n3cccn3)c2Oc2ccccc2)N1C(=O)C1CC1 [I-325, (S)-cyclopropyl(2-methyl-5-phenoxy-6-(1H-pyrazol-1-yl)-3,4-dihydroquinolin-1(2H)-yl)methanone] | ≥ 10000 nM | > 1000
C[C@H]1CCc2c(ccc(-n3nccn3)c2OC2CCC2)N1C(=O)C1CC1 [I-326, (S)-(5-cyclobutoxy-2-methyl-6-(2H-1,2,3-triazol-2-yl)-3,4-dihydroquinolin-1(2H)-yl)(cyclopropyl)methanone] | ≥ 10000 nM | > 1000
C[C@H]1CCc2c(ccc(-n3nccn3)c2Oc2ccccc2)N1C(=O)C1CC1 [I-327, (S)-cyclopropyl(2-methyl-5-phenoxy-6-(2H-1,2,3-triazol-2-yl)-3,4-dihydroquinolin-1(2H)-yl)methanone] | ≥ 10000 nM | > 1000
C[C@H]1CCc2c(ccc(-c3ncc(C4CCNCC4)[nH]3)c2OC2CCC2)N1C(=O)C1CC1 [I-328, (S)-(5-cyclobutoxy-2-methyl-6-(5-(piperidin-4-yl)-1H-imidazol-2-yl)-3,4-dihydroquinolin-1(2H)-yl)(cyclopropyl)methanone] | 1000 to 10000 nM | < 500
COC(=O)N1c2ccc(-c3cnn(C4CCNCC4)c3)c(Oc3cccc(OC)n3)c2CC[C@@H]1C [I-335, (S)-methyl 5-(6-methoxypyridin-2-yloxy)-2-methyl-6-(1-(piperidin-4-yl)-1H-pyrazol-4-yl)-3,4-dihydroquinoline-1(2H)-carboxylate] | 100 to 1000 nM | < 500
COc1cccc(Oc2c(-c3cnn(C4CCNCC4)c3)ccc3c2CC[C@H](C)N3C(C)=O)n1 [I-336, (S)-1-(5-(6-methoxypyridin-2-yloxy)-2-methyl-6-(1-(piperidin-4-yl)-1H-pyrazol-4-yl)-3,4-dihydroquinolin-1 (2H)-yl)ethanone] | 100 to 1000 nM | < 500
C[C@H]1CCc2c(ccc(-n3cc(N4CCNCC4)cn3)c2Oc2ccccc2)N1C(=O)C1CC1 [I-337, (S)-cyclopropyl(2-methyl-5-phenoxy-6-(4-(piperazin-1-yl)-1H-pyrazol-1-yl)-3,4-dihydroquinolin-1(2H)-yl)methanone] | 1000 to 10000 nM | > 1000
C[C@H]1CCc2c(ccc(-n3cc(N4CCOCC4)cn3)c2Oc2ccccc2)N1C(=O)C1CC1 [I-338, (S)-cyclopropyl(2-methyl-6-(4-morpholino-1H-pyrazol-1-yl)-5-phenoxy-3,4-dihydroquinolin-1(2H)-yl)methanone] | 1000 to 10000 nM | 500 to 1000
COC(=O)N1c2ccc(-n3cc(N4CCOCC4)cn3)c(Oc3ccccc3)c2CC[C@@H]1C [I-339, (S)-methyl 2-methyl-6-(4-morpholino-1H-pyrazol-1-yl)-5-phenoxy-3,4-dihydroquinoline-1(2H)-carboxylate] | 1000 to 10000 nM | > 1000
COC(=O)N1c2ccc(-n3cc(N4CCNCC4)cn3)c(Oc3ccccc3)c2CC[C@@H]1C [I-340, (S)-methyl 2-methyl-5-phenoxy-6-(4-(piperazin-1-yl)-1H-pyrazol-1-yl)-3,4-dihydroquinoline-1(2H)-carboxylate] | 1000 to 10000 nM | > 1000
COC(=O)N1c2ccc(-c3cnn(C4CCS(=O)(=O)CC4)c3)c(OC3CCC3)c2CC[C@@H]1C [I-341, methyl (2S)-5-cyclobutoxy-6-[1-(1,1-dioxo-1λ^6-thian-4-yl)-1H-pyrazol-4-yl]-2-methyl-1,2,3,4-tetrahydroquinoline-1-carboxylate] | 100 to 1000 nM | 500 to 1000
C[C@H]1CCc2c(ccc(C#N)c2Oc2ccccc2)N1C(=O)C1CC1 [I-343, (S)-1-(cyclopropanecarbonyl)-2-methyl-5-phenoxy-1,2,3,4-tetrahydroquinoline-6-carbonitrile] | 100 to 1000 nM and ≥ 10000 nM | < 500
COC(=O)N1c2ccc(C#N)c(Oc3ccccc3)c2CC[C@@H]1C [I-344, (S)-methyl 6-cyano-2-methyl-5-phenoxy-3,4-dihydroquinoline-1(2H)-carboxylate] | ≥ 10000 nM | > 1000

Now from value to molecule:

IC50 [1] | IC50 [2] [nM] | SMILES
100 to 1000 nM | < 500 | C[C@H]1CCc2c(ccc(-c3cn(C)nn3)c2Oc2cc(F)ccc2F)N1C(=O)C1CC1 [I-318, (S)-cyclopropyl(5-(2,5-difluorophenoxy)-2-methyl-6-(1-methyl-1H-1,2,3-triazol-4-yl)-3,4-dihydroquinolin-1(2H)-yl)methanone]
1000 to 10000 nM | < 500 | C[C@H]1CCc2c(ccc(-c3cn(C)nn3)c2Oc2ccc(F)c(F)c2)N1C(=O)C1CC1 [I-319, (S)-cyclopropyl(5-(3,4-difluorophenoxy)-2-methyl-6-(1-methyl-1H-1,2,3-triazol-4-yl)-3,4-dihydroquinolin-1(2H)-yl)methanone]
100 to 1000 nM | < 500 | C[C@H]1CCc2c(ccc(-c3cn(C)nn3)c2Oc2ccccc2F)N1C(=O)C1CC1 [I-320, (S)-cyclopropyl(5-(2-fluorophenoxy)-2-methyl-6-(1-methyl-1H-1,2,3-triazol-4-yl)-3,4-dihydroquinolin-1(2H)-yl)methanone]
100 to 1000 nM | < 500 | C[C@H]1CCc2c(Oc3ccccc3)c(-c3cn(C)nn3)cc(F)c2N1C(=O)C1CC1 [I-321, (S)-cyclopropyl(8-fluoro-2-methyl-6-(1-methyl-1H-1,2,3-triazol-4-yl)-5-phenoxy-3,4-dihydroquinolin-1(2H)-yl)methanone]
100 to 1000 nM | < 500 | COC(=O)N1c2c(F)cc(-c3cn(C)nn3)c(Oc3ccccc3)c2CC[C@@H]1C [I-322, (S)-methyl 8-fluoro-2-methyl-6-(1-methyl-1H-1,2,3-triazol-4-yl)-5-phenoxy-3,4-dihydroquinoline-1(2H)-carboxylate]
1000 to 10000 nM | < 500 | CC(=O)N1c2c(F)cc(-c3cn(C)nn3)c(Oc3ccccc3)c2CC[C@@H]1C [I-323, (S)-1-(8-fluoro-2-methyl-6-(1-methyl-1H-1,2,3-triazol-4-yl)-5-phenoxy-3,4-dihydroquinolin-1(2H)-yl)ethanone]
100 to 1000 nM | < 500 | C[C@H]1CCc2c(ccc(-c3ncc(C4CCNCC4)[nH]3)c2Oc2ccccc2)N1C(=O)C1CC1 [I-329, (S)-cyclopropyl(2-methyl-5-phenoxy-6-(5-(piperidin-4-yl)-1H-imidazol-2-yl)-3,4-dihydroquinolin-1(2H)-yl)methanone]
100 to 1000 nM | < 500 | Cc1cc(Oc2c(-c3cnn(C4CCNCC4)c3)ccc3c2CC[C@H](C)N3C(=O)C2CC2)cc(C)n1 [I-330, (S)-cyclopropyl(5-(2,6-dimethylpyridin-4-yloxy)-2-methyl-6-(1-(piperidin-4-yl)-1H-pyrazol-4-yl)-3,4-dihydroquinolin-1(2H)-yl)methanone]
100 to 1000 nM | < 500 | Cc1cccc(Oc2c(-c3cnn(C4CCNCC4)c3)ccc3c2CC[C@H](C)N3C(=O)C2CC2)n1 [I-331, (S)-cyclopropyl(2-methyl-5-(6-methylpyridin-2-yloxy)-6-(1-(piperidin-4-yl)-1H-pyrazol-4-yl)-3,4-dihydroquinolin-1(2H)-yl)methanone]
100 to 1000 nM | < 500 | Cc1ccc(Oc2c(-c3cnn(C4CCNCC4)c3)ccc3c2CC[C@H](C)N3C(=O)C2CC2)c(C)n1 [I-332, (S)-cyclopropyl(5-(2,6-dimethylpyridin-3-yloxy)-2-methyl-6-(1-(piperidin-4-yl)-1H-pyrazol-4-yl)-3,4-dihydroquinolin-1(2H)-yl)methanone]
100 to 1000 nM | < 500 | COC(=O)N1c2ccc(-c3cnn(C4CCNCC4)c3)c(Oc3cccc(C)n3)c2CC[C@@H]1C [I-333, (S)-methyl 2-methyl-5-(6-methylpyridin-2-yloxy)-6-(1-(piperidin-4-yl)-1H-pyrazol-4-yl)-3,4-dihydroquinoline-1(2H)-carboxylate]
1000 to 10000 nM | < 500 | CC(=O)N1c2ccc(-c3cnn(C4CCNCC4)c3)c(Oc3cccc(C)n3)c2CC[C@@H]1C [I-334, (S)-1-(2-methyl-5-(6-methylpyridin-2-yloxy)-6-(1-(piperidin-4-yl)-1H-pyrazol-4-yl)-3,4-dihydroquinolin-1 (2H)-yl)ethanone]
